Assay results as given in US20260256925A1, “INDAZOLE DERIVATIVES AS ESTROGEN RECEPTOR DEGRADERS” (REGENTS OF THE UNIVERSITY OF MICHIGAN, priority 2022, published 2026).

The compounds below were run against T1, ER (Homo sapiens, UniProt P03372) (assay: In-cell western blot analysis, relative ER percentage (compounds B1-B126)). Conditions: ER degradation, 16 hours, read-out: ICW DC50.
T1 construct: endogenous in cells; probably T47D or MCF-7
T1 sequence (P03372 1-595): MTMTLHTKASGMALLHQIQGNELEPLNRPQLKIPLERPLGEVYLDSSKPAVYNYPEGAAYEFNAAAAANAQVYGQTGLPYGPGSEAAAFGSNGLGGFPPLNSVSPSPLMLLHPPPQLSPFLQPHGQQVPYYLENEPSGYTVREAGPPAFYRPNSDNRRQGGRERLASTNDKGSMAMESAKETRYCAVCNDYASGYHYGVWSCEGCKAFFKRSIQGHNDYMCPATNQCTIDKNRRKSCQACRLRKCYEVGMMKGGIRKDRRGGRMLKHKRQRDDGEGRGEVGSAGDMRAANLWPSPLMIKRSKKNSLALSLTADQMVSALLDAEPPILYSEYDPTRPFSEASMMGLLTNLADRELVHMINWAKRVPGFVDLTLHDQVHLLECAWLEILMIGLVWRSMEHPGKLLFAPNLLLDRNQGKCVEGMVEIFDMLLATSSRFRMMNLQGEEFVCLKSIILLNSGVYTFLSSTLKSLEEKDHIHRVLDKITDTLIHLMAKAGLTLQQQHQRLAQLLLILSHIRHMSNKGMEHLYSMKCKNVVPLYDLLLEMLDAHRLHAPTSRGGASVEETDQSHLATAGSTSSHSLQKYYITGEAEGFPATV
Format: cell-based
Procedure: In-cell western blot analysis. Cells are seeded in multi-well plates (e.g., at 40,000 or 10,000 cells/well). Diluted compounds at certain concentration are added (final 0.5% DMSO) and cells are incubated for a certain period of time (e.g., 16 hours). Formaldehyde (e.g., PBS: FA=9:1) is added and followed by washing with PBS. The cells are blocked with Licor blocking buffer (Li-Cor). The relative ER percentage in treated cells are obtained by comparing the values of treated wells to those in untreated and DMSO-treated wells as 100%.
In-cell western blot analysis. a. seed cells in black-sided/clear bottom 96- or 384-well plates at 40,000 or 10,000 cells/well, overnight; b. add diluted compounds (final 0.5% DMSO), 16 hours. […] RT 2h, gentle shaking. Negative control: cells plus secondary antibodies (no primary antibodies); e. wash×4 with PBS +0.05-0.1% Tween 20, gentel shaking; f. anti-rabbit-680 and anti-mouse-800 (both 1:1000 in LiCor block+0.05% Tween20, RT 1h, gentle shaking, no light. LI-COR: 0.2% to reduce background; g. wash×4 with PBS+0.05% Tween 20, gental shaking; h. add 100 μL or 25 μL of PBS to each well and read on CLX plate reader. The relative ER percentage in treated cells were obtained by comparing the values of treated wells to those in untreated and DMSO-treated wells as 100%.
`C[C@H]1Cc2c(ccc3[nH]ncc23)[C@H](c2cnc(N3CCC4(CC3)CC(CN3CCN(c5ccc(NC6CCC(=O)NC6=O)cc5F)CC3)C4)nc2)N1CC(F)(F)F` (stereo partly drawn) [Compound B122, 3-((3-fluoro-4-(4-((7-(5-((6R,8S)-8-methyl-7-(2,2,2-trifluoroethyl)-6,7,8,9-tetrahydro-3H-pyrazolo[4,3-f]isoquinolin-6-yl)pyrimidin-2-yl)-7-azaspiro[3.5]nonan-2-yl)methyl)piperazin-1-yl)phenyl)amino)piperidine-2,6-dione] showed a DC50 of over 100 nM. With `C[C@@H]1Cc2c(ccc3[nH]ncc23)[C@@H](c2cnc(N3CCC4(CC3)CC(CN3CCN5c6cc7c(cc6OC[C@@H]5C3)C(=O)N(C3CCC(=O)NC3=O)C7)C4)nc2)N1CC(F)(F)F` (stereo partly drawn) [Compound B113, 3-((S)-3-((7-(5-((6S,8R)-8-methyl-7-(2,2,2-trifluoroethyl)-6,7,8,9-tetrahydro-3H-pyrazolo[4,3-f]isoquinolin-6-yl)pyrimidin-2-yl)-7-azaspiro[3.5]nonan-2-yl)mcthyl)-8-oxo-1,2,3,4,4a,5,8,10-octahydro-9H-pyrazino[1′,2′:4,5][1,4]oxazino[2,3-f]isoindol-9-yl)piperidine-2,6-dione] the DC50 was under 10 nM. Work on `C[C@@H]1Cc2c(ccc3[nH]ncc23)[C@@H](c2c(F)cc(C3=CCC(C(=O)N4CCC(N5Cc6cc7c(cc6C5)C(=O)N(C5CCC(=O)NC5=O)C7=O)CC4)CC3)cc2F)N1CC(F)F` (stereo partly shown) [Compound B102] yielded a DC50 of over 100 nM. For `C[C@H]1Cc2c(ccc3[nH]ncc23)[C@H](c2cnc(N3CC4(CCC(CN5CCN6c7ccc8c(c7OC[C@@H]6C5)CN([C@@H]5CCC(=O)NC5=O)C8=O)CC4)C3)nc2)N1CC(F)(F)F` [Compound B123, (R)-3-((S)-7-((2-(5-((6R,8S)-8-methyl-7-(2,2,2-trifluoroethyl)-6,7,8,9-tetrahydro-3H-pyrazolo[4,3-f]isoquinolin-6-yl)pyrimidin-2-yl)-2-azaspiro[3.5]nonan-7-yl)methyl)-1-oxo-1,3,5,5a,6,7,8,9-octahydro-2H-pyrazino[1′,2′:4,5][1,4]oxazino[2,3-e]isoindol-2-yl)piperidine-2,6-dione], the DC50 was under 10 nM. `C[C@H]1Cc2c(ccc3[nH]ncc23)[C@H](c2cnc(N3CCC4(CC3)CC(CN3CCN5c6cc7c(cc6OC[C@H]5C3)C(=O)N(C3CCC(=O)NC3=O)C7)C4)nc2)N1CC(F)(F)F` (stereo partly drawn) [Compound B118, 3-((R)-3-((7-(5-((6R,8S)-8-methyl-7-(2,2,2-trifluoroethyl)-6,7,8,9-tetrahydro-3H-pyrazolo[4,3-f]isoquinolin-6-yl)pyrimidin-2-yl)-7-azaspiro[3.5]nonan-2-yl)methyl)-8-oxo-1,2,3,4,4a,5,8,10-octahydro-9H-pyrazino[1′,2′:4,5][1,4]oxazino[2,3-f]isoindol-9-yl)piperidine-2,6-dione] gave a DC50 of 10 to 100 nM. For `COc1cc(N2CCC3(CC2)CC(CN2CCC4(CC2)COc2c4ccc4c2CN(C2CCC(=O)NC2=O)C4=O)C3)ccc1[C@@H]1c2ccc3[nH]ncc3c2C[C@@H](C)N1CC(F)F` (stereo partly drawn) [Compound B56, 3-(1′-((7-(4-((6S,8R)-7-(2,2-difluoroethyl)-8-methyl-6,7,8,9-tetrahydro-3H-pyrazolo[4,3-f]isoquinolin-6-yl)-3-methoxyphenyl)-7-azaspiro[3.5]nonan-2-yl)methyl)-6-oxo-6,8-dihydro-2H,7H-spiro[furo[2,3-e]isoindole-3,4′-piperidin]-7-yl)piperidine-2,6-dione], the DC50 was over 100 nM. With “3-((R)-7-((7-(6-((6S,8R)-7-(2,2- difluoroethyl)-8-methyl-6,7,8,9- tetrahydro-3H-pyrazolo[4,3- f]isoquinolin-6-yl)pyridin-3-yl)-7- azaspiro[3.5]nonan-2-yl)mcthyl)-1- oxo-1,3,5,5a,6,7,8,9-octahydro-2H- pyrazino[1′,2′:4,5][1,4]oxazino[2,3- e]isoindol-2-yl)piperidine-2,6- dione [Compound B83]” the DC50 was over 100 nM.
